Measured values taken from paper PMC3153577 (Biochemistry, 2011).
Read-outs that look alike come from different tables or passages of the source.

Experiments:
MtDHFR = molecular target: T1, MtDHFR (Mycobacterium tuberculosis, UniProt P9WNX1)
T1 sequence (P9WNX1 1-161): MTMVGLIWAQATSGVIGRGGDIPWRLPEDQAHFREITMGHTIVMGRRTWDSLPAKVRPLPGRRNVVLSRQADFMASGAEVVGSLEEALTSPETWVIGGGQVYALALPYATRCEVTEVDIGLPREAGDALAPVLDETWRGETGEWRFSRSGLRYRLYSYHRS

MtDHFR-NADP^+ = molecular target: T2, MtDHFR-NADP^+ (Mycobacterium tuberculosis, UniProt P9WNX1); assay type: binding; conditions: for koff: competitor NADPH
T2 sequence (P9WNX1 1-161): T1 sequence (P9WNX1 1-161)

MtDHFR-NADPH = molecular target: T3, MtDHFR-NADPH (Mycobacterium tuberculosis, UniProt P9WNX1); conditions: NADP^+ competition
T3 sequence (P9WNX1 1-161): T1 sequence (P9WNX1 1-161)

[1] = NADPH dissociation from MtDHFR-NADPH
[2] = NADPH dissociation from MtDHFR-NADPH-THF

SMILES	k−3, best-fit value – global fitting (MtDHFR; NADP^+ association to MtDHFR-THF, not determined experimentally)	k−9, best-fit value – global fitting (MtDHFR; NADP^+ association to free enzyme, linked to k9 based on KNADP = 0.33 μM)	k9, best-fit value – global fitting (MtDHFR; NADP^+ dissociation from MtDHFR-NADP^+)	k12, best-fit value – global fitting (MtDHFR; NADP^+ dissociation from MtDHFR-NADP^+-DHF)	k3, best-fit value – global fitting (MtDHFR; NADP^+ dissociation from MtDHFR-NADP^+-THF)	k12, value obtained by analytical fitting (MtDHFR-NADP^+; NADP^+ dissociation from MtDHFR-NADP^+-DHF, NADPH competition)	k3, value obtained by analytical fitting (MtDHFR-NADP^+; NADP^+ dissociation from MtDHFR-NADP^+-THF, NADPH competition)	k9, value obtained by analytical fitting (MtDHFR-NADP^+; NADP^+ dissociation from MtDHFR-NADP^+, NADPH competition)	koff (MtDHFR-NADP^+; NADP^+ from MtDHFR-NADP^+-DHF)	koff (MtDHFR-NADP^+; NADP^+ from MtDHFR-NADP^+-THF)	koff (MtDHFR-NADP^+; NADP^+ from MtDHFR-NADP^+)	k4, best-fit value – global fitting (MtDHFR; NADPH association to MtDHFR-THF, not determined experimentally)	k−10, best-fit value – global fitting (MtDHFR; [1])	k−4, best-fit value – global fitting (MtDHFR; [2])	k−4, value obtained by analytical fitting (MtDHFR-NADPH; [2])	k−10, value obtained by analytical fitting (MtDHFR-NADPH; [1])
NC(=O)c1ccc[n+]([C@H]2O[C@@H](COP(=O)([O-])OP(=O)(O)OC[C@H]3O[C@@H](n4cnc5c(N)ncnc54)[C@H](OP(=O)(O)O)[C@@H]3O)[C@H](O)[C@@H]2O)c1 [NADP^+, nicotinamide adenine dinucleotide phosphate (oxidized form)]	1.09e+08 ± 6e+06 M⁻¹ s⁻¹	2.68e+08 ± 7e+06 M⁻¹ s⁻¹	81 ± 2 s⁻¹	2.1 ± 0.2 s⁻¹	7.3 ± 0.1 s⁻¹	7.8 ± 0.1 s⁻¹	8.02 ± 0.02 s⁻¹	98 ± 4 s⁻¹	7.8 ± 0.1 s⁻¹	8.0 ± 0.1 s⁻¹	97.6 ± 4.1 s⁻¹					
NC(=O)C1=CN([C@@H]2O[C@H](COP(=O)(O)OP(=O)(O)OC[C@H]3O[C@@H](n4cnc5c(N)ncnc54)[C@H](OP(=O)(O)O)[C@@H]3O)[C@@H](O)[C@H]2O)C=CC1 [NADPH, nicotinamide adenine dinucleotide phosphate (reduced form)]												1.01e+08 M⁻¹ s⁻¹	0.08 ± 0.01 s⁻¹	1.1 ± 0.1 s⁻¹	1.7 ± 0.6 s⁻¹	0.13 ± 0.01 s⁻¹
